Measured values taken from PMC11930985 (Nature Communications, 2025).
Values after ≈ are worked out from the molar mass of the structure shown. Values joined by “and” are separate entries in the source; they are usually repeats but may differ in a detail not shown here. Equal values may be shown once.

What was measured:
healthy male subjects = system: healthy male subjects; design: method as in Protocol BGBC001; conditions: ref Protocol BGBC001; cited from earlier work
pERK1/2 T202/Y204 = experiment: CyTOF maximal inhibition in Undefined/Immature Myeloid cells: pERK1/2; assay type: in vivo, human
From the text: Pharmacodynamic endpoints included the measurement of inhibition of pAXL, pERK, pAKT, pS6 and pSTAT1/3/5 in blast cells (defined as cells with abnormal surface marker expression as compared to healthy donor peripheral blood mononuclear cells and undefined/immature myeloid cells (defined as cells carrying myeloid markers but lacking distinguishing terminal differentiation markers). Mass cytometry time of flight (CyTOF) was used for the determination of the pharmacodynamic markers using a previously validated and tested panel of mass-tagged antibodies[39],[40]. The antibodies in the panel are listed in Supplementary Table 5. Briefly, fixed leukocytes from peripheral blood were barcoded using a 20-plex metal barcoding kit (Standard Biotools, Cell-ID 201060) according to manufacturer’s protocol, allowing all the samples from a single individual to be stained and analysed in parallel. All analysis runs included barcoded peripheral blood mononuclear cells (PBMCs) from at least one healthy donor and an identical barcoded reference sample (mix of PBMCs from six healthy donors). […]
For each population, marker, and sample, the 95th percentile of the non-transformed expression values was calculated. […]

AML/MDS patients = experiment: Dose-limiting toxicity assessment, 3+3 dose escalation; assay type: in vivo
From the text: The study consisted of a phase 1b dose escalation, followed by a phase 2a cohort expansion. […] Due to the introduction of an enhanced formulation, the study was extended with a second dose escalation cohort following a 3 + 3 study design, also with expansion at the selected dose (Fig. 1).
The conventional 3 + 3 study design gives a 71% chance of escalation if the true but unknown rate of DLT is 20%, and <50% chance of escalation if the true but unknown rate of DLT is >30%. […] Based on a one-sided, within-group test of proportions comparing an anticipated ORR of >20% against the null hypothesis rate of 5%, with power 80% and type I error 0.2 (suitable as evidence of a trend worthy of future study), a sample size of up to 14 evaluable patients was selected for B2. On the same basis, for B5 an initial sample size of 14 relapsed and 14 refractory AML patients was planned. However, upon regulatory review by the FDA, this was reduced to 20 R/R AML patients with 4 refractory AML patients. For this early-stage study, the efficacy analyses are secondary endpoints, and no account was taken of the multiplicity inherent in the assessment of several, presumably non-independent criteria, for ORR.

Hoxa9/Meis1 leukemia = system: Hoxa9/Meis1 leukemia; design: method as in Ben-Batalla et al., 2013; conditions: ref Ben-Batalla et al., 2013; cited from earlier work

Compound: Nc1nc(Nc2ccc3c(c2)CC[C@@H](N2CCCC2)CC3)nn1-c1cc2c(nn1)-c1ccccc1CCC2 [Bemcentinib]
- Maximum QTcF recorded (severity) (healthy male subjects): Grade I
- EC50 (pERK1/2 T202/Y204; Homo sapiens, Undefined/Immature Myeloid cells, N = 12 patients, read-out: EC50 (± standard error), pERK1/2 T202/Y204 inhibition): 0.0873 ± 0.0017 µg/mL (≈ 0.172 µM)
- Maximum inhibition (percent) pERK1/2 (T202/Y204) (pERK1/2 T202/Y204; Supplementary Figure 1c, individual patients): 87.1% and 71.6% and 100% and 8.8% and 98.1% and 30.4% and 66.9% and 0% and 5.7% and 94.5% and 39.2% and 69.3%
- Formal criteria for a maximum tolerated dose (AML/MDS patients; DE cohort): not met
- Recommended phase 2 dose (loading/maintenance) (AML/MDS patients; human, in vivo, 3 weeks): 400/200
- Dose-limiting toxicities (DLT) observed (AML/MDS patients; in vivo): Three
- Survival (Hoxa9/Meis1 leukemia): prolong
